{
  "source": "patent US10696686B2",
  "about": "“Herbicidally active (alkynyl-phenyl)-substituted cyclic dione compounds and derivatives thereof” (Syngenta Limited, priority 2013, dated 2020)",
  "key": {"[1]": {"test_system": "Echinochloa crus-galli (ECHCG)", "experiment": "Biological Example 2 glasshouse assay (IF50 formulation, X-77), post-emergence", "assay_type": "in vivo", "conditions": "14 or 15 DAA", "method": "(§1) Seeds of a variety of monocotyledonous and dicotyledonous test plants are sown in standard soil in pots. The plants are cultivated for one day (for pre-emergence) or for about 12 days (range=10-13 days) (for post-emergence) under controlled conditions in a glasshouse (warm climate species at 24/18° C., cool climate species at 20/16° C., both at day/night; 16 hours light; 65% humidity). An “instant formulation”, known as the “IF50”, containing 50 g/litre (i.e. 5% w/v) of the “technical” (i.e. unformulated) active ingredient is prepared by dissolving the active ingredient in a mixture of organic solvents and emulsifier, details of which are provided in the Table below. This IF50 is then mixed with a small, variable amount of acetone to aid dissolution, before addition of a 0.2% v/v aqueous solution of the adjuvant X-77 (which is a mixture of alkyl aryl polyoxyethylene glycols and free fatty acids in isopropanol, CAS Registry number 11097-66-8), as the aqueous diluent, to form an aqueous spray solution which contains a predetermined concentration of the active ingredient (which varies depending on the application rate of the active ingredient to the plants) and 0.2% v/v of the adjuvant X-77. This aqueous spray solution is then sprayed onto the plants, after one day's cultivation (for pre-emergence) or after about 12 days' cultivation (for post-emergence).\n(§2) The test plants are then grown on, in a glasshouse (greenhouse) under controlled conditions (at either 24/18° C. or 20/16° C. (day/night) as mentioned above; 16 hours light; 65% humidity) and are watered twice daily. Either 14 or 15 days after application of the herbicide (14 or 15 DAA) (for post-emergence), or 20 days after application of the herbicide (20 DAA) (for pre-emergence), the test plants are evaluated visually, and an assessed percentage phytotoxicity score is given for each herbicidal application on each plant species (where 100%=total damage to plant; 0%=no damage to plant). Some of the typical test plants are as follows: Cool climate crop plants: Triticum aestivum (TRZAW, winter wheat), Brassica napus (BRSNN, rape, also called oilseed rape or rapeseed), Beta vulgaris (BEAVA, sugarbeet). Warm climate crop plants: Glycine max (GLXMA, soybean). Cool climate (“cool season”) grassy monocotyledonous weeds: Alopecurus myosuroides (ALOMY), Avena fatua (AVEFA), Lolium perenne (LOLPE), Poa annua (POAAN), Bromus tectorum (BROTE). Warm climate (“warm season”) grassy monocotyledonous weeds: Setaria faberi (SETFA), SORVU (Sorghum bicolor (L.) Moench ssp. Bicolor, or Sorghum vulgare Pers.), Digitaria sanguinalis (DIGSA), Echinochloa crus-galli (ECHCG), Brachiaria plantaginea (BRAPL), Zea mays (ZEAMX, corn, maize, e.g. volunteer corn), Panicum miliaceum (PANMI)."}, "[2]": {"test_system": "Triticum aestivum (TRZAW, winter wheat)", "experiment": "Biological Example 2 glasshouse assay (IF50 formulation, X-77), post-emergence", "assay_type": "in vivo", "conditions": "for percentage phytotoxicity score TRZAW: 14 or 15 DAA", "method": "as §1, §2"}},
  "data": [
    {"smiles": "C#CCC1CC(=O)C(c2c(F)cc(C#CC)cc2OC)C1=O", "note": "(centres unmarked) [Compound A8, 2-(2-fluoro-6-methoxy-4-prop-1-ynyl-phenyl)-4-prop-2-ynyl-cyclopentane-1,3-dione]", "values": [
      {"measurement": "percentage phytotoxicity score ECHCG", "setting": "[1]; 125 g/ha (rate taken from row order)", "value": 100, "unit": "%"},
      {"measurement": "percentage phytotoxicity score ECHCG", "setting": "[1]; 250 g/ha (rate taken from row order)", "value": 100, "unit": "%"},
      {"measurement": "percentage phytotoxicity score TRZAW", "setting": "[2]; 125 g/ha", "value": 50, "unit": "%"},
      {"measurement": "percentage phytotoxicity score TRZAW", "setting": "[2]; 250 g/ha", "value": 70, "unit": "%"},
      {"measurement": "phytotoxicity against wheat (in words)", "setting": "[2]; relative to herbicidal activity against warm-climate grassy weeds, Biological Example 2", "value": "medium or reasonably low phytotoxicity"}
    ]}
  ]
}
